The text below walks through data of ChEMBL document CHEMBL5154697, “Synthesis and anti-HIV activity of a new isoxazole containing disubstituted 1,2,4-oxadiazoles analogs” (Bioorg Med Chem, 2022).

Series [1] can be described thus: Cytotoxicity against human CEM-GFP cells assessed as reduction in cell viability measured after 48 hrs by MTT assay. The series is classed as toxicity, cell-based. In general terms: Tetrazolium assays rely on reduction of a dye to a coloured formazan, in cell work by metabolically active cells.
Series [2] has as its system Human immunodeficiency virus 1. Kind of series: Antiviral activity against HIV1 NL4.3 infected in human TZM-bl cells assessed as inhibition of viral infection at 100 nM measured after 48 hrs by steady-glo luciferase reporter gene assay relative to control. Particulars: Human immunodeficiency virus 1, NL4.3, TZM-bl. It counts as functional.
Series [3] is described as follows: Cytotoxicity against human CEM-GFP cells assessed as cell viability at 100 nM measured after 48 hrs by MTT assay relative to control. Particulars: read-out: Activity. It counts as toxicity, cell-based.
The nature of series [4]: Cytotoxicity against human TZM-bl cells harboring beta-galactosidase/luciferase reporter gene assessed as cell viability at 100 nM measured after 48 hrs by MTT assay relative to control. It counts as toxicity, cell-based. Particulars: read-out: Activity.
The subject of series [5] is Human immunodeficiency virus 1. In words: Antiviral activity against HIV1 NL4.3 virus infected in human CEM-GFP cells assessed as reduction in p24 antigen level at 100 nM measured after 72 hrs by ELISA relative to control. It counts as functional. Conditions: Human immunodeficiency virus 1, NL4.3, CEM-GFP. A general note: ELISA stands for enzyme-linked immunosorbent assay.

The nature of series [6]: Therapeutic index, ratio of CC50 for cytotoxicity against human CEM-GFP cells to IC50 for antiviral activity against HIV1 NL4.3 virus infected in human CEM-GFP cells assessed as reduction in p24 antigen level. The series is classed as toxicity, cell-based. Particulars: read-out: TI.
For series [7], the target named is Human immunodeficiency virus type 1 integrase (Human immunodeficiency virus 1) (UniProt Q7ZJM1). In words: Inhibition of full-length recombinant HIV1 integrase at 100 nM using target substrate DNA preincubated for 5 mins followed by substrate addition and measured after 30 mins by colorimetry relative to control. Conditions: time 35.0 min.
In series [8] the target is Human immunodeficiency virus type 1 reverse transcriptase (Human immunodeficiency virus 1) (UniProt Q72547). In words: Inhibition of HIV-1 reverse transcriptase RNA-dependent DNA polymerase activity assessed as reduction in biotin-dUTP incorporation at 100 nM using poly(A)/oligo (dT)15 as template/primer by ELISA relative to control.
The target in series [9] is Human immunodeficiency virus type 1 protease (Human immunodeficiency virus 1) (UniProt Q72874). In words: Inhibition of HIV-1 protease at 100 nM using fluorophore-labelled peptide substrate by fluorescence assay relative to control.
The subject of series [10] is Human immunodeficiency virus 1. In words: Antiviral activity against HIV1 NL4.3 virus infected in human CEM-GFP cells assessed as reduction in p24 antigen level measured after 72 hrs by ELISA. The series is classed as functional, organism-based. Conditions: Human immunodeficiency virus 1, NL4.3, CEM-GFP.
For series [11], the target named is Human immunodeficiency virus type 1 protease (Human immunodeficiency virus 1) (UniProt Q72874). Particulars: dose 500.0 nM.
Description: Inhibition of HIV-1 protease at 500 nM using fluorophore-labelled peptide substrate by fluorescence assay relative to control

Human immunodeficiency virus type 1 integrase (Human immunodeficiency virus 1), sequence (Q7ZJM1 as listed by the source): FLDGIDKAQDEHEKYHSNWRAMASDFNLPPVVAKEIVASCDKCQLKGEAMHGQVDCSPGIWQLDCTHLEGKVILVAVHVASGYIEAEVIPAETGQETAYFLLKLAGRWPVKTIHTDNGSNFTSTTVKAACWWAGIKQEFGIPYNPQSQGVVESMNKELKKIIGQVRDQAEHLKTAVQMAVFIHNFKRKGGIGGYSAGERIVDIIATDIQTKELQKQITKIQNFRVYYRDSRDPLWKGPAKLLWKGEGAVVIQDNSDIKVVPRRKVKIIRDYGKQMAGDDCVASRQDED

Regarding `CCNC(=O)c1noc(-c2cc(C(C)C)c(O)cc2O)c1-c1ccc(CN2CCOCC2)cc1` [LUMINESPIB], the CC50 – broadly, the concentration at which the toxic effect on the cells reaches its halfway point – at 48 h in series [1] came to 31.1 µM. In addition, the inhibition (in general, the drop in the measured response relative to a control, in per cent) at 0.1 µM is 88.9% in [2] and 82.5% in [5]. The figures for the viability at 48 h, 0.1 µM in [3] and in series [4] were 94.1% and 92.7%, respectively. In series [6], the selectivity ratio amounted to 470.
Consider `FC(F)(F)c1cccc(-c2nc(Cc3cc(-c4ccc(Cl)cc4)no3)no2)c1`, for which the CC50 at 48 h in [1] came out at 13.3 µM. Further, the inhibition in series [7] is 9.58%; in series [8] it was 5.44%; in series [9] it was 6.66%. Further, the inhibition at 0.1 µM came out at 82% in series [2] and 66.8% in [5]. The results for the viability at 48 h, 0.1 µM in series [3] and in series [4] were 85.1% and 84.4%, respectively. Moreover, the IC50 – broadly, the concentration that inhibits the measured activity by half – in series [10] was 0.0857 µM. Further, the selectivity ratio in [6] is 155.
Regarding `FC(F)(F)c1cccc(-c2nc(Cc3cc(-c4ccccc4)no3)no2)c1`, the inhibition at 0.1 µM in series [2] amounted to 47.4%; in [5], 39.1%. Also, the viability at 48 h, 0.1 µM worked out at 95.9% in series [3] and 84.7% in series [4].
For `FC(F)(F)c1cccc(-c2nc(Cc3cc(-c4cccs4)no3)no2)c1` the same measures were 27.5%, 17.5%, 88.3% and 88.2%.
The like results for `COc1ccc(-c2cc(Cc3noc(-c4cccc(C(F)(F)F)c4)n3)on2)cc1` were, in that order, 24.3%, 27%, 96.6% and 83%.
Take `CC(C)(C)NC(=O)[C@@H]1CN(Cc2cccnc2)CCN1C[C@@H](O)C[C@@H](Cc1ccccc1)C(=O)N[C@H]1c2ccccc2C[C@H]1O`: the inhibition in series [11] stood at 87%.
Consider `Cc1ccc(-c2cc(Cc3noc(-c4cccc(C(F)(F)F)c4)n3)on2)cc1`, for which the values for the inhibition at 0.1 µM in series [2] and in series [5] were 65.4% and 50%, respectively. Also, the viability at 48 h, 0.1 µM in series [3] came out at 86.7%; in series [4] it was 82.1%.
